In paper PMC5547393, “Aromatase inhibitory activity of 1,4-naphthoquinone derivatives and QSAR study” (EXCLI Journal, 2017):

Key:
aromatase = experiment: QSAR (MLR) prediction of aromatase inhibitory activity; conditions: for folds more potent than the compared analogue: pairs: 6c > 6, 7c > 7, 7a > 7, 6 > 6a, 7b > 7a, pIC50 based; for pIC50 fold greater than parent compound 1: predicted pIC50 versus experimental pIC50 0.301 of compound 1
Excerpt: Conceptually, a QSAR model was constructed using the data obtained from experimentally tested compounds (1-11). The constructed model was subsequently used to predict the activity of the additional set of structurally modified compounds (series 1-11) that were generated in silico.
Chemical structures of the tested compounds (1-11) along with their experimental IC50 values were used to construct the QSAR model. The IC50 values were converted to pIC50 values by taking the negative logarithm to base 10 (-log IC50) to obtain a normal distribution of data points.
The chemical structures of 11 tested compounds (1-11) and 39 structurally modified compounds (series 1-11) were drawn using the GaussView software (Dennington et al., 2003[11]). Optimization was performed to obtain the low-energy conformers for further calculation of molecular descriptor values. The compounds were geometrically optimized using Gaussian 09 (Frisch et al., 2009[13]) at the semi-empirical Austin Model 1 (AM1) level, followed by density functional theory (DFT) calculation using Becke's three-parameter hybrid method with the Lee-Yang-Parr correlation functional (B3LYP) together with the 6-31g(d) level. A set of 13 quantum chemical descriptors, i.e., mean absolute atomic charge (Qm), total energy (Etotal), total dipole moment (μ), highest occupied molecular orbital energy (EHOMO), lowest unoccupied molecular orbital energy (ELUMO), energy difference of HOMO and LUMO (HOMO-LUMOGap), electron affinity (EA), ionization potential (IP), Mulliken electronegativity (χ), hardness (η), softness (S), electrophilic index (ωi) and electrophilicity (ω), was extracted using a script developed in-house. The optimized structures were further calculated to obtain an additional set of 3,224 molecular descriptors using Dragon software version 5.5 (Talete, 2007[44]). The molecular descriptors obtained from the Dragon software included 22 classes, i.e., Constitutional descriptors, Topological descriptors, Walk and path counts, Connectivity indices, Information indices, 2D autocorrelation, Edge adjacency indices, Burden eigenvalues, Topological charge indices, Eigenvalue-based indices, Randic molecular profiles, Geometrical descriptors, RDF descriptors, 3D-MoRSE descriptors, WHIM descriptors, GETAWAY descriptors, Functional group counts, Atom-centered fragments, Charge descriptors, Molecular properties, 2D binary fingerprints and 2D frequency fingerprints.
Correlation-based feature selection was employed to initially select important descriptors from a large set of descriptors obtained from the calculation. The pair-correlation of each descriptor value and bioactivity (pIC50) was calculated using a Pearson's correlation coefficient (r) of 0.6 as a cut-off value. Descriptors with |r| < 0.6 were considered weakly correlated descriptors and were excluded from the study, whereas those with |r| ≥ 0.6 were selected for further selection process using stepwise multiple linear regression (MLR) as implemented in SPSS statistics 18.0 (SPSS Inc., USA[41]). Finally, a set of important descriptors was obtained for multivariate analysis.
Multivariate analysis was performed by Waikato Environment for Knowledge Analysis (WEKA) version 3.4.5 (Witten et al., 2011[47]) using a multiple linear regression (MLR) algorithm. Selected descriptor values and pIC50 values were assigned as independent variables (X) and dependent variables (Y), respectively. The MLR model was constructed according to Equation 2: […]
The data set was divided into a training set and a testing set by means of leave-one-out cross validation (LOO-CV). Conceptually, one sample was removed from the entire data set (N) and was used as the testing set, whereas the remaining samples (N-1) were used as the training set. The same sampling process was continued until every sample in the data set was used as the testing set to predict the variable Y (activity). […]

MRC-5 cell line [1] = test system: MRC-5 cell line; design: method as in Prachayasittikul et al., 2014[35]; conditions: normal MRC-5 cell line, ref Prachayasittikul et al., 2014[35], cited from earlier work; for IC50: read-out: MRC-5 (µM) cytotoxicity
[2] = target: T1, recombinant human aromatase (CYP19) (Homo sapiens, UniProt P11511); experiment: Aromatase inhibition assay (Gentest kit, CYP19 with DBF fluorometric substrate); conditions: for Aromatase inhibitory activity category: category by experimental IC50
T1 sequence (P11511 1-503): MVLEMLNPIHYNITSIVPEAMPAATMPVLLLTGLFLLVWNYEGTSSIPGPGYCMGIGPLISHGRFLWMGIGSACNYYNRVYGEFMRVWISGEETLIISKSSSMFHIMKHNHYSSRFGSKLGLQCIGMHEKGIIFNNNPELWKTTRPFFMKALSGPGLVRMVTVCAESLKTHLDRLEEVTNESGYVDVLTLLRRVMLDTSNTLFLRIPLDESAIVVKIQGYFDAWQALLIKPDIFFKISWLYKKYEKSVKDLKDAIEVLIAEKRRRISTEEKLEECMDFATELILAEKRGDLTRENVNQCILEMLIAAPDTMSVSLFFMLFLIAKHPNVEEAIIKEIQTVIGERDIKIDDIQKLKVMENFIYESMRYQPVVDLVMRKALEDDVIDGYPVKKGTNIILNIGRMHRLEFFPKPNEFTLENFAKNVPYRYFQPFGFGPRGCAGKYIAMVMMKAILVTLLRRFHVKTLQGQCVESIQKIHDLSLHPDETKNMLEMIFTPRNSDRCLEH
Experimental: The assay was performed with a Gentest kit using enzyme CYP19 and DBF as a fluorometric substrate. DBF was dealkylated by aromatase and then hydrolyzed, yielding the fluorescein product. […] After the incubation at 37 °C for 30 min, the reaction was terminated by adding 50 µL of 2.2 N NaOH. […] The percentage of inhibition (% inhibition) was calculated using Equation 1. […] IC50 values were determined by plotting concentrations versus % inhibition.

MRC-5 cell line [3] = experiment: Cytotoxicity against the normal MRC-5 cell line; format: cell-based; conditions: MRC-5 cytotoxicity versus aromatase IC50
Excerpt: The cytotoxicity of compounds 1-11 against the normal MRC-5 cell line (Table 1(Tab. 1)) was previously documented (Prachayasittikul et al., 2014[35]).

[4] = Aromatase inhibitory activity IC50, Inactive = % inhibition ≤ 50 % at 12.5 µM
[5] = Experimental aromatase inhibitory activity (pIC50), -log IC50 of the experimental IC50 values

Row | IC50 [2, 4] [µM] | IC50 [2, 5] [µM] | SMILES | Aromatase inhibitory activity category [2] | SI (selectivity index) (MRC-5 cell line [3]) | IC50 (MRC-5 cell line [1]) [µM] | also measured
1 |  |  | O=C1C(Cl)=C(Nc2ccc(C(=O)C(F)(F)F)cc2)C(=O)c2ccccc21 [Compound 7a] |  |  |  | folds more potent than the compared analogue (aromatase): 1.47 folds
2 |  |  | O=C1C(I)=C(I)C(=O)c2ccccc21 [Compound 1b] |  |  |  | pIC50 fold greater than parent compound 1 (aromatase): 11.90 fold; pIC50 fold greater than letrozole (aromatase; predicted pIC50 versus experimental pIC50 […] of letrozole): 1.03 fold
3 |  |  | O=C1C(F)=C(F)C(=O)c2ccccc21 [Compound 1c] |  |  |  | pIC50 fold greater than parent compound 1 (aromatase): 2.04 fold
4 |  |  | COc1ccc(CCNC2=C(Cl)C(=O)c3ccccc3C2=O)cc1OC [Compound 11] | inactive |  |  | MRC-5 (µM) cytotoxicity (MRC-5 cell line [1]): non-cytotoxic
5 | 5.3 | 5.3 | CC(=O)c1ccc(NC2=C(Cl)C(=O)c3ccccc3C2=O)cc1 [Compound 7] | moderately active (moderately active (1 µM < IC50 < 10 µM)) | 2.32 | 12.3 ± 1.08 | 
6 |  |  | CC(=O)c1cccc(N(C)C2=C(Cl)C(=O)c3ccccc3C2=O)c1 [Compound 6c] |  |  |  | folds more potent than the compared analogue (aromatase): 1.67 folds
7 |  |  | O=C1C(Cl)=C(Nc2ccccc2)C(=O)c2ccccc21 [Compound 3] | inactive |  | 16.4 ± 1.28 | 
8 | 3.3 | 3.3 | O=C1C(Cl)=C(NCCc2ccccc2)C(=O)c2ccccc21 [Compound 10] | moderately active (moderately active (1 µM < IC50 < 10 µM)) |  |  | MRC-5 (µM) cytotoxicity (MRC-5 cell line [1]): non-cytotoxic
9 | 18 | 18 | O=C(O)c1ccccc1NC1=C(Cl)C(=O)c2ccccc2C1=O [Compound 5] | weak | 4.78 | 86 ± 3.04 | 
10 | 0.5 ± 0.4 | 0.5 | CN(C1=C(Cl)C(=O)c2ccccc2C1=O)c1ccccc1 [Compound 4] | highly active (highly active (IC50 < 1 µM)) | 17.20 | 8.6 ± 0.77 | 
11 | 1.9 | 1.9 | O=C1C(Cl)=C(Nc2ccc(Nc3ccccc3)cc2)C(=O)c2ccccc21 [Compound 8] | moderately active (moderately active (1 µM < IC50 < 10 µM)) | 10.94 | 20.8 ± 0.68 | 
12 |  |  | CCN(C1=C(Cl)C(=O)c2ccccc2C1=O)c1ccccc1 [Compound 4a] |  |  |  | pIC50 fold greater than parent compound 1 (aromatase): 1.08 fold; fold less potent than letrozole (aromatase; predicted pIC50 versus letrozole): 10.68 fold
13 |  |  | O=C1C(Br)=C(Br)C(=O)c2ccccc21 [Compound 1a] |  |  |  | pIC50 fold greater than parent compound 1 (aromatase): 1.83 fold
14 |  |  | COc1cccc2c1C(=O)c1c(O)c3c(c(O)c1C2=O)C[C@@](O)(C(=O)CO)C[C@@H]3O[C@H]1C[C@H](N)[C@H](O)[C@H](C)O1 [Doxorubicin, reference compound] |  |  |  | MRC-5 (µM) cytotoxicity (MRC-5 cell line [1]): non-cytotoxic
15 | 4.7 | 4.7 | O=C1C(Cl)=C(Nc2cccc3cccnc23)C(=O)c2ccccc21 [Compound 9] | moderately active (moderately active (1 µM < IC50 < 10 µM)) | 2.89 | 13.6 ± 1.33 | 
16 | 3.1 | 3.1 | CC(=O)c1cccc(NC2=C(Cl)C(=O)c3ccccc3C2=O)c1 [Compound 6] | moderately active (moderately active (1 µM < IC50 < 10 µM)) | 5.01 | 15.5 ± 0.75 | folds more potent than the compared analogue (aromatase): 1.83 folds
17 |  |  | CN(C1=C(Cl)C(=O)c2ccccc2C1=O)c1ccc(C(=O)C(F)(F)F)cc1 [Compound 7b] |  |  |  | folds more potent than the compared analogue (aromatase): 2.28 folds
18 |  |  | CC(=O)c1ccc(N(C)C2=C(Cl)C(=O)c3ccccc3C2=O)cc1 [Compound 7c] |  |  |  | folds more potent than the compared analogue (aromatase): 2.73 folds
19 |  |  | CN(C1=C(Cl)C(=O)c2ccccc2C1=O)c1ccc(C(=O)O)cc1 [Compound 5d] |  |  |  | folds more potent than ketoconazole (aromatase; predicted pIC50 -0.329 versus ketoconazole pIC50 -0.415): 1.26 folds
20 | 8.7 ± 0.9 | 8.71 | CCCCNC1=C(Cl)C(=O)c2ccccc2C1=O [Compound 2] | moderately active (moderately active (1 µM < IC50 < 10 µM)) |  |  | MRC-5 (µM) cytotoxicity (MRC-5 cell line [1]): non-cytotoxic

Row | SMILES | IC50 [2, 4] [µM] | IC50 [2, 5] [µM] | Aromatase inhibitory activity category [2] | SI (selectivity index) (MRC-5 cell line [3]) | IC50 (MRC-5 cell line [1]) [µM] | also measured
21 | O=C1C(Cl)=C(Cl)C(=O)c2ccccc21 [Compound 1, 2,3-dichloro-1,4-naphthoquinone] | 0.5 ± 0.3 | 0.5 | highly active (highly active (IC50 < 1 µM)) | 45.98 | 23 ± 0.42 | IC50 fold lower than ketoconazole [2]: 5.2 fold
